Tests used:
P-eIF2-α = assay: eIF2-α phosphorylation (P-eIF2-α) immunoblot in DCs; type: cell-based, mouse; settings: for eIF2-α phosphorylation in presence of soluble poly I:C: DCs activated with soluble poly I:C 24 h, 75 μM salubrinal for the last 4 h
Protocol: (§1) Bone marrow-derived DCs were obtained and cultured as described previously^50. NIH3T3 cells were cultured in RPMI 1640 (GIBCO) supplemented with 10% FCS (HyClone, PERBIO), 100 units/ml penicillin and 100 μg/ml streptomycin (GIBCO). Wild-type and PKR^−/− MEFs (from Caetano Reis e Sousa) were cultured in DMEM, 10% FCS, pen/strep. Wild-type and GCN2^−/− MEFs (from David Ron) were cultured in RPMI, 10% FCS, pen/strep, MEM non-essential amino acids (GIBCO), 55 μM beta-mercaptoethanol. For the tryptophan starvation experiments, MEFs and DCs were cultured for the indicated time in RPMI 1640 Tryptophan—medium (21875, GIBCO). All cells were cultured at 37° C. and 5% CO2.
(§2) MEFs, NIH3T3 and immature DCs were treated for the indicated time with 10 μg/ml poly I:C (InvivoGen), alone or in combination with lipofectamine 2000 (Invitrogen). 2 μg/ml tunicamycin (SIGMA) was added to DCs for 2 h; 2 μM MG132 (BIOMOL International) was added to DCs and NIH3T3 4 h before harvesting; 75 μM salubrinal (Calbiochem) or 100 nM tautomycin (Calbiochem) were added to DCs 4 h before harvesting; 500 μM sodium arsenite (SIGMA) was added for 30 min to DCs, NIH3T3 and MEFs; 50 μM LY294002 (Calbiochem) was added to DCs 1 h before harvesting. Immature DCs were treated for the indicated time with 100 ng/ml LPS (SIGMA).
(§3) Cells were lysed in 1% Triton X-100, 50 mM Hepes, 10 mM NaCl, 2.5 mM MgCl2, 2 mM EDTA, 10% glycerol, 1 mM PMSF, supplemented with Complete Mini Protease Inhibitor Cocktail Tablets (Roche). Protein quantification was performed using the BCA Protein Assay (Pierce). 25-50 μg of Triton X-100-soluble material were loaded on 2%-12% gradient SDS-PAGE before immunoblotting and chemiluminescence detection (SuperSignal West Pico Chemiluminescent Substrate, Pierce). Nuclear extraction was performed using the Nuclear Complex Co-IP kit (Active Motif). Rabbit polyclonal antibodies against ATF4 (CREB-2, C-20) and eIF2α (FL-315) were from Santa Cruz Biotechnology, as well as mouse monoclonal against GADD34 (C-19) and PKR (B-10). Rabbit polyclonal antibodies against P-eIF2α (Ser 51) and caspase-3 were from BioSource and Cell Signaling Technology respectively. Mouse monoclonal antibodies against β-actin and histone H1 were from SIGMA and Upstate respectively. Secondary antibodies were from Jackson ImmunoResearch Laboratories. Quantification of eIF2α phosphorylation was performed using the Multi Gauge software (Fujifilm).

DCs [1] = assay: Translation intensity measurement by puromycin labelling in DCs; type: cell-based, mouse
Protocol: MEFs, NIH3T3 and immature DCs were treated for the indicated time with 10 μg/ml poly I:C (InvivoGen), alone or in combination with lipofectamine 2000 (Invitrogen). 2 μg/ml tunicamycin (SIGMA) was added to DCs for 2 h; 2 μM MG132 (BIOMOL International) was added to DCs and NIH3T3 4 h before harvesting; […]; 500 μM sodium arsenite (SIGMA) was added for 30 min to DCs, NIH3T3 and MEFs; 50 μM LY294002 (Calbiochem) was added to DCs 1 h before harvesting. Immature DCs were treated for the indicated time with 100 ng/ml LPS (SIGMA).
Puromycin labelling for measuring the intensity of translation was performed using 10 μg/ml puromycin (SIGMA, min 98% TLC, cell culture tested, P8833, diluted in PBS) was added in the culture medium and the cells were incubated for 10 min at 37° C. and 5% CO2. Where indicated, 25 μM cycloheximide (SIGMA) was added 5 min before puromycin. Cells were then harvested, centrifugated at 4° C. and washed with cold PBS prior to cell lysis and immunoblotting with the 12D10 antibody.
Cells were lysed in 1% Triton X-100, 50 mM Hepes, 10 mM NaCl, 2.5 mM MgCl2, 2 mM EDTA, 10% glycerol, 1 mM PMSF, supplemented with Complete Mini Protease Inhibitor Cocktail Tablets (Roche). Protein quantification was performed using the BCA Protein Assay (Pierce). […] Quantification of eIF2α phosphorylation was performed using the Multi Gauge software (Fujifilm).

MEFs and NIH3T3 = assay: Translation monitoring in MEFs and NIH3T3 exposed to poly I:C; type: cell-based, mouse; settings: lipofected poly I:C, within 4 to 8 hours
Protocol: as §1
as §2, with “(SIGMA). […]” for “(SIGMA).”

DCs [2] = assay: Stress granule formation in DCs (mRNA in situ hybridization, confocal microscopy); type: cell-based, mouse
caspase-3 = assay: Caspase-3 level and cleavage by immunoblot in DCs; type: cell-based, mouse
Protocol: (§4) […] Immature DCs were treated for the indicated time with 100 ng/ml LPS (SIGMA).
as §3

ATF4 = ATF4 protein immunoblot in nuclear extract of DCs; type: cell-based, mouse; settings: poly I:C, 8 h
Protocol: as §2
Cells were lysed in 1% Triton X-100, 50 mM Hepes, 10 mM NaCl, 2.5 mM MgCl2, 2 mM EDTA, 10% glycerol, 1 mM PMSF, supplemented with Complete Mini Protease Inhibitor Cocktail Tablets (Roche). Protein quantification was performed using the BCA Protein Assay (Pierce). 25-50 μg of Triton X-100-soluble material were loaded on 2%-12% gradient SDS-PAGE before immunoblotting and chemiluminescence detection (SuperSignal West Pico Chemiluminescent Substrate, Pierce). Nuclear extraction was performed using the Nuclear Complex Co-IP kit (Active Motif). […] Quantification of eIF2α phosphorylation was performed using the Multi Gauge software (Fujifilm).

DCs [3] = assay: mRNA quantification by real-time RT-PCR in poly I:C stimulated DCs; type: cell-based, mouse; settings: qPCR
Protocol: as §2
Total RNA was isolated from DCs using the RNeasy miniprep kit (Qiagen). cDNA was synthesized from RNA samples using the Superscript II reverse transcriptase (Invitrogen). Quantitative real-time PCR was carried out in complete SYBR Green PCR buffer (PE Biosystem) by using 200 nM of each specific primer. A total of 20 μl of PCR mix was added to 5 μl of cDNA template, and the amplification was tracked via SYBR Green incorporation by using a Stratagene sequence detection system. cDNA concentration in each sample were normalized by using HPRT. A nontemplate control was also routinely performed. Primers used for gene amplification (designed with the Primer3 software) have been generated.

IFN-β = IFN-β ELISA in culture supernatant of activated DCs; type: cell-based, mouse; settings: poly I:C (or LPS) 8 h, salubrinal added 2 h before stimulation
Protocol: as §4
IFN-β quantification in culture supernatant of DCs (5 fold-diluted) was performed using the Mouse Interferon Beta ELISA kit (PBL InterferonSource) according to manufacturer instructions.

CHIKV = settings: murine IFN-β added 3 h before infection, 10 MOI, GFP expression at 24 h

CO[C@H]([C@H](O)CC(=O)[C@@H](C)[C@@H](O)CC[C@@H](C)[C@@H]1O[C@]2(CC[C@@H](C)[C@H](CC[C@H](C)C(C)=O)O2)CC[C@@H]1C)[C@H](OC(=O)C[C@@H](O)C1=C(C)C(=O)OC1=O)C(C)C [tautomycin]
eIF2-α phosphorylation (same experiments as with salubrinal) (P-eIF2-α; DCs, 100 nM tautomycin 4 h before harvesting, with or without poly I:C): confirmed

polyinosinic:polycytidylic acid [poly I:C]
Translation in DCs exposed to lipofected poly I:C (DCs [1]; after 8 hours of exposure): translation was not inhibited
Translation in MEFs (wt) and NIH3T3 (MEFs and NIH3T3): efficiently induced PKR-dependent translation arrest
P-eIF2-α levels during poly I:C stimulation (P-eIF2-α; DCs, soluble poly I:C time course): gradually reduced
Proportion of DCs bearing stress granules upon activation (DCs [2]; DCs activated with poly I:C or LPS, 500 μM sodium arsenite for the last 30 min): 15%
Caspase-3 levels and cleavage, stimulus alone (caspase-3; DCs, 8 h, no salubrinal): little effect
ATF4 translation (protein level) (ATF4): strongly up-regulated
ATF4 mRNA expression increase (DCs [3]; 10 μg/ml poly I:C): 2 folds
CHOP mRNA expression increase (DCs [3]; 10 μg/ml poly I:C): 8 folds
CReP mRNA expression (DCs [3]; poly I:C): induced only very modestly
PP1 mRNA expression (DCs [3]; poly I:C): only modestly increased

sodium arsenite
Proportion of DCs bearing stress granules (DCs [2]): ~100%

O=C(/C=C/c1ccccc1)NC(NC(=S)Nc1cccc2cccnc12)C(Cl)(Cl)Cl (centres unmarked) [salubrinal]
Protein synthesis in poly I:C stimulated DCs (DCs [1]; poly I:C 4 or 8 h, salubrinal added 2 h before stimulation): strongly reduced
eIF2-α phosphorylation in presence of soluble poly I:C (P-eIF2-α): strongly accentuates eIF2-α phosphorylation
eIF2-α phosphorylation in presence of soluble poly I:C (P-eIF2-α; listed as Salubrinal): considerably enhanced
eIF2-α phosphorylation (P-eIF2-α; DCs, salubrinal alone, 75 μM, 4 h before harvesting): induced eIF2-α phosphorylation
Caspase-3 levels and cleavage, salubrinal with poly I:C or LPS (caspase-3; DCs stimulated 8 h, salubrinal added 2 h before): lighter effect than salubrinal alone
Total levels of caspase-3 and its cleaved active product (caspase-3; DCs, salubrinal treatment alone): massive increase
IFN-β secretion by activated DCs (IFN-β): drastically reduced

B1: IFN-β: murine interferon-β added to MEFs before CHIKV infection (protein, UniProt P01575 22-182, looked up)
Interferon beta: INYKQLQLQERTNIRKCQELLEQLNGKINLTYRADFKIPMEMTEKMQKSYTAFAIQEMLQNVFLVFRNNFSSTGWNETIVVRLLDELHQQTVFLKTVLEEKQEERLTWEMSSTALHLKSYYWRVQRYLKLMKYNSYAWMVVRAEIFRNFLIIRRLTRNFQN
CHIKV replication in WT and GADD34ΔC/ΔC MEFs (CHIKV): abrogation of viral replication
